Values after ≈ are worked out from the molar mass of the structure shown.
Key:
Solubility Assay = format: physicochemical; settings: 100 mM NaCl buffer, aqueous with cosolvent or surfactant or cyclodextrin, kinetic from dmso stock, 20 mM HEPES, pH 7.5, 18-24 hours at ambient temperature, read-out: Solubility
Procedure: A 20 mM stock solution was made for each compound in DMSO. To measure solubility, 0.03-0.05 mL of the stock was added to 0.27 mL 20 mM HEPES, 100 mM NaCl, pH 7.5. The solution was mixed and rotated 18-24 hours at ambient temperature. The next day, solutions were centrifuged for 10 min at 20,000×g at 24° C. to remove insoluble, solid material. Next, 100 μL of the supernatant containing the soluble compound was added to 900 μL DMSO and High Performance Liquid Chromatography was performed as described in Table 1 and either HPLC gradient 1 (Table 2) for HPLC gradient 2 (Table 3). For each analog, a 200 μM standard and a 20 μM standard were prepared and run in parallel (standards were dissolved completely in 100% DMSO). The amount of compound in the experimental sample was calculated by comparing the area under the curve for compound peak to the area for the closest standard and correcting for dilution.

[1] = tested on: Enterococcus hirae (ATCC #10541); assay: Antimicrobial Activity Assay; format: cell-based; settings: Enterococcus hirae, minimal inhibitory concentration; for MIC: ATCC10541, read-out: Antimicrobial Activity
Procedure: The overnight growth was then diluted into growth media to make a single solution of E. hirae with a final optical density at 600 nm=0.02 AU. A 20 mM stock solution of Thiostrepton in DMSO was made and used to make multiple dilutions of TS in DMSO. Each TS dilution (0.1 mL) was then added to a test tube containing 10 mL of the diluted E. hirae and grown at 37° C. overnight while shaking at 180 rpm. The next morning, each tube was visually inspected to determine if the cells grew. Final concentrations tested were 0.120, 0.090, 0.075, 0.060, 0.045, 0.030, and 0.015 μM TS. […] Three replicates were made on three separate days (n=9). […] For TS analogs, the dilute E. hirae was treated with 20 µM final concentration of each analog (three replicates each). […] DMSO was used as a positive control (complete cell growth) and 20 µM thiostrepton was used as a negative control.

[2] = tested on: human SK-OV-3 ovarian cancer cells; assay: Cellular Activity Assay (cytotoxicity, crystal violet); format: cell-based; settings: SK-OV-3 cells, 48 hr treatment
Text: (§1) To test the activity of compounds, two complimentary assays were used as described below. The Biochemical PRX3 Inhibition Assay tests the ability of each compound to crosslink PRX3 in a simple, in vitro system. In the Cellular Activity Assay, we are testing the ability of compounds to kill SK-OV-3 ovarian cancer cells.
The Cellular Activity Assay measures the EC50 of each compound in human SK-OV-3 ovarian cancer cells TS to be taken into the cell, transported to the mitochondria, and crosslink PRX3.
The cytotoxicity of compounds was measured as described in Nelson et al. (2021) Antioxidants (Basel) 10, 150; Cunniff et al. (2015) PloS one 10, e0127310; and Newick et al. (2012) PloS one 7, e39404. SK-OV-3 is an adherent, epithelial, adenocarcenoma cell line obtained from ATCC (ref #: HTB-77). SK-OV-3 cells are resistant to the commonly used chemotherapeutics, cis-platinum and doxorubicin. For this PRX3 crosslinking assay, SK-OV-3 cells were plated in a 96-well plate. After 24 h recovery, the cells were treated for 48 hr with multiple concentrations of each compound ranging from 0.1-100 μM.
Cells were washed with PBS to remove dead cells and the remaining live cells were fixed with 3.0% formaldehyde and stained with 0.1% crystal violet. The amount of crystal violet was determined by reading the absorbance at 540 nm (crystal violet dye dissolved in 100% methanol) using a plate reader. The signal for crystal violet dye is proportional to the biomass of remaining live cells. GraphPad Prism9 software was used to calculate the effective inhibitory concentration (EC50) of test compounds. Results for each compound, are normalized to the amount of cells in control wells treated with the equivalent concentration of DMSO (negative control). TS or Compound B were included in each set of assays as a positive control.

purified human PRX3 = target: T1, purified human PRX3 (Homo sapiens, UniProt P30048); assay: Biochemical PRX3 Inhibition Assay (crosslink by SDS-PAGE, mono-adduct by MALDI-TOF MS); settings: 1-2 hr at 37° C.
T1 construct: made in house
T1 sequence (P30048 62-256): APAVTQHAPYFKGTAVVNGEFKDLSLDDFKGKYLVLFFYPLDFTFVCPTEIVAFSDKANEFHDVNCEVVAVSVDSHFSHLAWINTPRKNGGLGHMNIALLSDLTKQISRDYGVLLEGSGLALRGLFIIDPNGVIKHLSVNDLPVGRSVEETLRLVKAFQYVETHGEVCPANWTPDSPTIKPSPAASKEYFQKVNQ
Procedure: as §1
This assay tests the ability of each compound to form a covalent adduct with PRX3. The assay is performed as described in Nelson et al. (2021) Antioxidants (Basel) 10, 150; and Cunniff et al. (2015) PloS one 10, e0127310, and follows the appearance of non-reducible PRX3 crosslinks by SDS PAGE gel electrophoresis and follows the appearance of single PRX3 adducts by mass spectrometry. For this assay, purified human PRX3, hydrogen peroxide (the PRX3 substrate) and all the components required to enable PRX3 to catalytically cycle (thioredoxin-thioredoxin reductase-NAPDH system) are included (details below).
The biochemical PRX3 Inhibition assay contains 100 µM PRX3, 50 µM human TRX2, […] mouse thioredoxin reductase, and a NADPH regenerating system composed of 3.2 mM glucose 6-phosphate, 3.2 U/ml glucose 6-phosphate dehydrogenase and 0.4 mM NADPH. Samples are incubated for 1-2 hr at 37° C. with either 0.2 mM TS (positive control), compounds or an equivalent volume of DMSO (negative control). During this incubation, hydrogen peroxide is added to induce turnover of PRX3. Reactions are stopped by the addition of a buffer containing 100 mM dithiolthreitol (to break disulfide bonds) and SDS (detergent to denature proteins). NADPH, Glucose 6-Phosphate, and glucose 6-phosphate dehydrogenase were purchased from Sigma Aldrich. PRX3, thioredoxin, and thioredoxin reductase were all purified to >98% purity in the Lowther laboratory according to protocols referenced in Nelson et al. (2021) Antioxidants (Basel) 10, 150; and Cunniff et al. (2015) PloS one 10, e0127310.
To measure the amount of PRX3 crosslink, proteins in the reaction were separated by SDS-polyacrlyamide gel electrophoresis and stained for total protein using GelCode Blue (Life Technologies). The amount of unmodified PRX3 and TS-PRX3 crosslink was measured by densiometric analysis of the signal for the PRX3 band running at the MW of a PRX3 crosslink (−46 kDa) compared to the PRX3 signal at the MW of the un-modified PRX3 (˜23 kD).
To measure covalent adduct formation on a single PRX3 monomer, each reaction was exchanged into a mass spectrometry compatible buffer containing 40 mM ammonium citrate, pH 8.3 made in HPLC water. Sample was mixed 1:1 with a matrix solution containing 30 mg/mL sinapinic acid in 70% (vol/vol) acetonitrile, 0.2% formic acid and spotted to onto the sample plate. PRX3 mass was measured by MALDI-TOF MS analysis on a Bruker Daltonics MALDI-TOF MS spectrometer. Spectra were analyzed in FLEXAnalysis Software. The intensity of the reduced PRX3 peak (SH) and intensity of the analog adduct peak was determined and corrected for background signal at the adduct peak in the DMSO control. The fraction of single analog adduct in the monomer peak was determined by dividing the intensity of the adduct peak by the summed intensity of the SH and adduct peaks.

SMILES | solubility (Solubility Assay) | Antimicrobial Activity [1] | EC50 [2] | PRX3 Inhibition (Crosslink + Mono-adduct) (purified human PRX3) | MIC [1]
C=C(NC(=O)c1csc(N2CCC(NC(=O)OC(C)(C)C)CC2)n1)C(=O)NC(=C)C(=O)OC [Compound A, Methyl 2-(2-(2-(4-((tert-butoxycarbonyl)amino)piperidin-1-yl)thiazole-4-carboxamido)acrylamido)acrylate, reference compound] | < 100 µM | − (>20 μM) | – | – | –
C=C(NC(=O)c1csc(N2CCC(NC(=O)OC(C)(C)C)CC2)n1)C(=O)NC(=C)C(=O)OC1CCOCC1 [Compound 5, Tetrahydro-2H-pyran-4-yl 2-(2-(2-(4-((tert-butoxycarbonyl)amino)piperidin-1-yl)thiazole-4-carboxamido)acrylamido)acrylate] | < 100 µM | – | 1 to 10 µM | +++ (>90%) | > 20 µM
C=C(NC(=O)C(=C)NC(=O)c1csc(N2CCC(NC(=O)OC(C)(C)C)CC2)n1)C(=O)NCCOC [Compound 4, Tert-butyl (1-(4-((3-((3-((2-methoxyethyl)amino)-3-oxoprop-1-en-2-yl)amino)-3-oxoprop-1-en-2-yl)carbamoyl)thiazol-2-yl)piperidin-4-yl)carbamate] | 100 to 1000 µM (≈ 52.3 to 523 µg/mL) | – | 10 to 25 µM | +++ (>90%) | > 20 µM
C=C(NC(=O)c1csc(N2CCC(NC(=O)OC(C)(C)C)CC2)n1)C(=O)NC(=C)C(=O)N(C)CCOC [Compound 7, Tert-butyl (1-(4-((3-((3-((2-methoxyethyl)(methyl)amino)-3-oxoprop-1-en-2-yl)amino)-3-oxoprop-1-en-2-yl)carbamoyl)thiazol-2-yl)piperidin-4-yl)carbamate] | 100 to 1000 µM (≈ 53.7 to 537 µg/mL) | – | 25 to 100 µM | +++ (>90%) | > 20 µM
C=C(NC(=O)c1csc(N2CCC(NC(=O)OC(C)(C)C)CC2)n1)C(=O)NC(=C)C(=O)N1CCCCC1 [Compound 1, Tert-butyl (1-(4-((3-oxo-3-((3-oxo-3-(piperidin-1-yl)prop-1-en-2-yl)amino)prop-1-en-2-yl)carbamoyl)thiazol-2-yl)piperidin-4-yl)carbamate] | < 100 µM | – | 10 to 25 µM | +++ (>90%) | > 20 µM
C=C(NC(=O)c1csc(N2CCC(NC(=O)OC(C)(C)C)CC2)n1)C(=O)NC(=C)c1nnc(C2CCOCC2)o1 [Compound 8, Tert-butyl (1-(4-((3-oxo-3-((1-(5-(tetrahydro-2H-pyran-4-yl)-1,3,4-oxadiazol-2-yl)vinyl)amino)prop-1-en-2-yl)carbamoyl)thiazol-2-yl)piperidin-4-yl)carbamate] | < 100 µM | – | 10 to 25 µM | +++ (>90%) | > 20 µM
C=C(NC(=O)c1csc(N2CCC(NC(=O)OC(C)(C)C)CC2)n1)C(=O)NC(=C)C(=O)OCC1CCOCC1 [Compound 6, (Tetrahydro-2H-pyran-4-yl)methyl 2-(2-(2-(4-((tert-butoxycarbonyl)amino)piperidin-1-yl)thiazole-4-carboxamido)acrylamido)acrylate] | < 100 µM | – | 1 to 10 µM | +++ (>90%) | > 20 µM
C=C(NC(=O)c1csc(N2CCC(NC(=O)OC(C)(C)C)CC2)n1)C(=O)NC(=C)C(=O)OCCOC [Compound 3, 2-Methoxyethyl 2-(2-(2-(4-((tert-butoxycarbonyl)amino)piperidin-1-yl)thiazole-4-carboxamido)acrylamido)acrylate] | 100 to 1000 µM (≈ 52.4 to 524 µg/mL) | – | 10 to 25 µM | +++ (>90%) | > 20 µM
C=C(NC(=O)c1csc(N2CCC(NC(=O)OC(C)(C)C)CC2)n1)C(=O)NC(=C)C(=O)OCc1ccccc1 [Compound 2, Benzyl 2-(2-(2-(4-((tert-butoxycarbonyl)amino)piperidin-1-yl)thiazole-4-carboxamido)acrylamido)acrylate] | < 100 µM | – | 1 to 10 µM | ++ (50-90%) | > 20 µM
C=C(NC(=O)c1csc(-c2ccc(NC(=O)CCCCCBr)cc2)n1)C(=O)NC(=C)C(=O)OC [Compound B, Methyl 2-(2-(2-(4-(6-bromohexanamido)phenyl)thiazole-4-carboxamido)acrylamido)acrylate, reference compound] | < 100 µM | – | – | – | –
